# Data taken from US9447028B2, “Therapeutic aryl-amido-aryl compounds and their use” (King's College London, priority 2009, dated 2016).
# What was measured:
# Assay type in all cases: cell-based
# RARα = biological target: T1, RARα (Homo sapiens, UniProt P10276); experiment: Transactivation assay for RAR alpha (gal4-RAR fusion, luciferase reporter, COS-7 cells); conditions: for Improvement (RARα activity ratio) / Improvement (RARα/RARβ ratio): compared with XXX-03; for RARα/RARβ ratio (*): fold-selectivity for RARα over RARβ; for RARα activity ratio: ratio of test compound EC50 to that of atRA on the same plate
# T1 construct: gal4 (fusion partner); expressed in transfected cells; host or cells: COS-7
# T1 sequence (P10276 183-417 limits assumed): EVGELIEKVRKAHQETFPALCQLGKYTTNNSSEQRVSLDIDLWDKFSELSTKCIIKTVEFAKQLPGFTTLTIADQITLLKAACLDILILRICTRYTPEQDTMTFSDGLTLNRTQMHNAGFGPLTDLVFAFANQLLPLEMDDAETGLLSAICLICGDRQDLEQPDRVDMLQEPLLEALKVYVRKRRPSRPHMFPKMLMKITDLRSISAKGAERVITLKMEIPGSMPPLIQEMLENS
# In short: (§1)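 COS-7 cells co-transfected with gal4–RAR ligand-binding-domain fusion and pFR-luc reporter, then treated with compound in phenol-red-free DMEM (1% DMSO) for about one day. Luciferase read after lysis with BrightGlo; EC50 values from replicate experiments given as a ratio of means.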
# RARγ = biological target: T2, RARγ (Homo sapiens, UniProt P13631); experiment: Transactivation assay for RAR gamma (gal4-RAR fusion, luciferase reporter, COS-7 cells); conditions: ratio of test compound EC50 to that of atRA; inactive = no agonist action at the highest concentration tested
# T2 construct: gal4 (fusion partner); expressed in transfected cells; host or cells: COS-7
# T2 sequence (P13631 185-419 limits assumed): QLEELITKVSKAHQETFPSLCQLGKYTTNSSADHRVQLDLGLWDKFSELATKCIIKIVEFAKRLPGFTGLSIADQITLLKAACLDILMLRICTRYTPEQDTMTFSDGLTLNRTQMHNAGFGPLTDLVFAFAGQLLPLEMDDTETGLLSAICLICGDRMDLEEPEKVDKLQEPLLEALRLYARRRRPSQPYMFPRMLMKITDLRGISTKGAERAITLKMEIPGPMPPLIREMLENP
# In short: as §1
# RARβ = biological target: T3, RARβ (Homo sapiens, UniProt P10826); experiment: Transactivation assay for RAR beta (gal4-RAR fusion, luciferase reporter, COS-7 cells); conditions: ratio of test compound EC50 to that of atRA; inactive = no agonist action at the highest concentration tested
# T3 construct: gal4 (fusion partner); expressed in transfected cells; host or cells: COS-7
# T3 sequence (P10826 183-417 limits assumed): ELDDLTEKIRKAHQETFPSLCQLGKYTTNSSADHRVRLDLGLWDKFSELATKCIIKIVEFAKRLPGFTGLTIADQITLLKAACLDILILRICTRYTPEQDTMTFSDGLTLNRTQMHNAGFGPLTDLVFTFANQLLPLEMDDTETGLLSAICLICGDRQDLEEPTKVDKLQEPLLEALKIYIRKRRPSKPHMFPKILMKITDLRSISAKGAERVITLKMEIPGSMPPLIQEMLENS
# In short: as §1
Improvement (RARα activity ratio) (RARα),Improvement (RARα/RARβ ratio) (RARα),RARγ activity ratio (RARγ),RARβ activity ratio (RARβ),RARα/RARβ ratio (*) (RARα),RARα activity ratio (RARα),SMILES
~3.8-fold,~11-fold,inactive,1920,–,–,"CCOc1c(Cl)cc(C(=O)Nc2ccc(C(=O)O)cc2)cc1Cl [AAA-029, 4-(3,5-Dichloro-4-ethoxy-benzoylamino)-benzoic acid]"
–,–,1531,5200,118,44,"CCOc1c(OC(C)C)cc(C(=O)Nc2ccc(C(=O)O)c(C)c2)cc1OC(C)C [AAA-061, 4-(4-Ethoxy-3,5-diisopropoxybenzamido)-2-methylbenzoic acid]"
–,–,>1400,6087,234,26,"CCOc1c(Cl)cc(C(=O)Nc2ccc(C(=O)O)cc2)cc1OC [AAA-084, 4-(3-Chloro-4-ethoxy-5-methoxybenzamido)benzoic acid]"
–,–,148,19,1.5,13,"CCOc1c(Cl)cc(C(=O)Nc2ccc(C(=O)O)c(C(F)(F)F)c2)cc1Cl [AAA-033, 4-(3,5-Dichloro-4-ethoxybenzamido)-2-(trifluoromethyl)benzoic acid]"
–,–,2833,647,135,4.8,"CC(C)Oc1cc(C(=O)Nc2ccc(C(=O)O)cc2)cc(OC(C)C)c1Br [AAA-107, 4-(4-Bromo-3,5-diisopropoxybenzamido)benzoic acid]"
–,–,50000,712,71,10,"Cc1cc(NC(=O)c2cc(OC(C)C)c(Br)c(OC(C)C)c2)ccc1C(=O)O [AAA-111, 4-(4-Bromo-3,5-diisopropoxybenzamido)-2-methylbenzoic acid]"
~6.0-fold,~1.3-fold,1200,139,9.3,–,"CCCOc1c(Cl)cc(C(=O)Nc2ccc(C(=O)O)cc2)cc1Cl [AAA-003, 4-(3,5-Dichloro-4-propoxybenzamido)benzoic acid]"
–,–,3651,283,39,7.3,"O=C(O)c1ccc(NC(=O)c2cc(Cl)c(OCc3ccccc3)c(OCc3ccccc3)c2)cc1 [AAA-045, 4-(3,4-bis(benzyloxy)-5-chlorobenzamido)benzoic acid]"
–,–,69000,1926,107,18,"COc1c(Cl)cc(C(=O)Nc2ccc(C(=O)O)c(C)c2)cc1Cl [AAA-055, 4-(3,5-Dichloro-4-methoxybenzamido)-2-methylbenzoic acid]"
–,–,13333,160,31,5.2,"CCOc1c(Br)cc(C(=O)Nc2ccc(C(=O)O)c(C)c2)cc1C(F)(F)F [AAA-071, 4-(3-Bromo-4-ethoxy-5-(trifluoromethyl)benzamido)-2-methylbenzoic acid]"
–,–,27200,805,12.2,66,"CCOc1c(Cl)cc(C(=O)Nc2ccc(C(=O)O)cc2)cc1OC [AAA-024, 4-(3-Chloro-4-ethoxy-5-methoxybenzamido)benzoic acid]"
–,–,>62500,2386,701,3.4,"COc1c(Cl)cc(C(=O)Nc2ccc(C(=O)O)c(O)c2)cc1C(F)(F)F [AAA-070, 4-(3-Chloro-4-methoxy-5-(trifluoromethyl)benzamido)-2-hydroxybenzoic acid]"
–,–,3521,140,9,15,"COc1c(Cl)cc(C(=O)Nc2ccc(C(=O)O)cn2)cc1C(F)(F)F [AAA-065, 6-(3-Chloro-4-methoxy-5-(trifluoromethyl)benzamido)nicotinic acid]"
–,–,270,22,2,11,"O=C(O)c1ccc(NC(=O)c2cc(Cl)c(OC3CCCCC3)c(OC3CCCCC3)c2)cc1 [AAA-047, 4-(3-Chloro-4,5-bis(cyclohexyloxy)benzamido)benzoic acid]"
–,–,29730,273,68,4,"Cc1cc(NC(=O)c2cc(OC(C)C)c(Cl)c(OC(C)C)c2)ccc1C(=O)O [AAA-117, 4-(4-Chloro-3,5-diisopropoxybenzamido)-2-methylbenzoic acid]"
–,–,inactive,1350,23.3,58,"CCOc1c(Br)cc(NC(=O)c2ccc(C(=O)O)cc2)cc1Br [AAA-014, 4-(3,5-Dibromo-4-ethoxyphenylcarbamoyl)benzoic acid]"
–,–,6429,1686,22,76,"COc1c(OC(C)C)cc(C(=O)Nc2ccc(C(=O)O)c(C)c2)cc1OC(C)C [AAA-063, 4-(3,5-Diisopropoxy-4-methoxybenzamido)-2-methylbenzoic acid]"

SMILES,Improvement (RARα activity ratio) (RARα),Improvement (RARα/RARβ ratio) (RARα),RARγ activity ratio (RARγ),RARβ activity ratio (RARβ),RARα/RARβ ratio (*) (RARα),RARα activity ratio (RARα)
"CC(C)(C)Oc1cc(C(=O)Nc2ccc(C(=O)O)cc2)cc(Cl)c1OC(C)(C)C [AAA-048, 4-(3,4-Di-tert-butoxy-5-chlorobenzamido)benzoic acid]",–,–,162,38,44,0.86
"O=C(O)c1ccc(NC(=O)c2cc(Cl)c(OC3CCC3)c(C(F)(F)F)c2)cc1 [AAA-036, 4-(3-Chloro-4-cyclobutoxy-5-(trifluoromethyl)benzamido)benzoic acid]",–,–,2438,215,31,7.0
"COc1c(Cl)cc(C(=O)Nc2ccc(C(=O)O)c(C)c2)cc1OC1CCC1 [AAA-099, 4-(3-Chloro-5-cyclobutoxy-4-methoxybenzamido)-2-methylbenzoic acid]",–,–,89,655,59,11
"Cc1cc(NC(=O)c2cc(Cl)c(OC(C)(C)C)c(C(F)(F)F)c2)ccc1C(=O)O [AAA-038, 4-(4-(tert-Butoxy)-3-chloro-5-(trifluoromethyl)benzamido)-2-methylbenzoic acid]",–,–,0.36,49,98,0.50
